Measurements reported in patent US8518952B2, “6 substituted 2-heterocyclylamino pyrazine compounds as CHK-1 inhibitors” (Pfizer Inc., priority 2008, dated 2013).
Where two headings read alike, the source gives them in different places.

Assays:
[1] = target: T1, CHK1 (kinase domain) (Homo sapiens, UniProt O14757); experiment: CHK1 Ki determination, spectrophotometric coupled (pyruvate kinase/lactate dehydrogenase) assay; type: biochemical; conditions: CHK-1 kinase domain; for Ki: 150 uM ATP, 125 uM Syntide 2; for percent inhibition (where no Ki data is available): inhibitor concentration not given
T1 construct: a solution containing 1 nM of CHK1 (kinase domain)
T1 sequence (O14757 9-265 limits assumed): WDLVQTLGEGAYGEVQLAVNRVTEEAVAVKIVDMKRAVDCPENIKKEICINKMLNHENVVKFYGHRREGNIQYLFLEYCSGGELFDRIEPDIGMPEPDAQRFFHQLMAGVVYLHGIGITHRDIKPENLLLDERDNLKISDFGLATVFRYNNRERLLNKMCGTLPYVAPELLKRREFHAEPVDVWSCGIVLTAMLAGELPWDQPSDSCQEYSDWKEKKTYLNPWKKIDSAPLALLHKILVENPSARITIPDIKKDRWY
In short: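 Ki values, or % inhibition where no Ki was obtained, come from a tight-binding fit that uses active enzyme concentration and the ATP Km. Rates were followed as NADH loss at 340 nm, with ADP production coupled via pyruvate kinase and lactate dehydrogenase. Reactions with ATP (150 uM) and Syntide 2 (125 uM) were started after the CHK1 kinase domain had stood with inhibitor for 15 min.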

[2] = system: HeLa cells; experiment: Histone H3 (Ser10) phosphorylation ELISA, abrogation of camptothecin-induced G2 arrest (CHK-1 cellular assay); type: cell-based; conditions: HeLa cells, camptothecin 8 hrs, then compound with nocodozole 16 hours, read-out: EC50
Description: The Histone H3 phosphorylation ELISA assay detects cells entering mitosis and represents the primary in vitro cell-based assay used to measure the cellular potency of compounds in abrogating the G2 check point induced by DNA damage in HeLa cells or MiaPaCa cells. The candidate substances were assayed for potency in their ability to inhibit camptothecin-induced G2 arrest, as measured by an increase in Histone H3 phosphorylation on Ser10, a marker of entry into mitosis.
Tissue culture plates were seeded with HeLa cells or MiaPaCa Cells and allowed to attach overnight. The cells were then treated with camptothecin to induce DNA damage for 8 hrs. Candidate substances or diluent were then added in the presence of nocodozole for 16 hours. […] The fresh whole cell lysates were then thawed and added to the ELISA plate with shaking for 3 hours. Between all subsequent steps plates were washed 4 times with PBST. Biotinylated phospho Histone H3 (ser10) detection antibody was added for 1 hour, followed by addition of horseradish peroxidase-linked streptavidin secondary antibody for 1 hour. Color development of the antibody was performed with addition of TMB substrate and incubation for 2 minutes on a plate shaker. […] EC50 values were calculated by sigmoid curve fitting using a four-parameter analysis.
Under the “Ki” column, data entries in the format of “%” are percent inhibition data where no Ki data is available. Data entry under the “EC50” column with an * are data obtained using Mia Paca-2 cells rather than HeLa cells. Data is not available where noted as n/a.

SMILES | Ki [1] | EC50 ([2]; Homo sapiens, HeLa) | EC50 [2] | percent inhibition (where no Ki data is available) [1]
Cc1cn2c(-c3cncc(N[C@@H]4CCCN[C@@H]4C)n3)cnc2s1 [Example 96, 6-(2-methylimidazo[2,1-b][1,3]thiazol-5-yl)-N-[(2R,3R)-2-methylpiperidin-3-yl]pyrazin-2-amine] | 2.7 nM | 24.3 nM |  | 
CC1(Nc2cncc(-c3cnc4n3CCCC4)n2)CCNC1 (stereo not drawn) [Example 98, N-(3-methylpyrrolidin-3-yl)-6-(5,6,7,8-tetrahydroimidazo[1,2-a]pyridin-3-yl)pyrazin-2-amine] | 1000 nM | ≥ 10000 nM |  | 
FC(F)[C@@H]1C[C@@H](Nc2cncc(-c3cnn4cc(Cl)ccc34)n2)CN1 [Example 100, 6-(6-chloropyrazolo[1,5-a]pyridin-3-yl)-N-[(3R,5S)-5-(difluoromethyl)pyrrolidin-3-yl]pyrazin-2-amine] | 14.6 nM | 3530 nM |  | 
CCc1cn2c(-c3cncc(N[C@@H]4CC[C@H](C)NC4)n3)cnc2s1 [Example 103, 6-(2-ethylimidazo[2,1-b][1,3]thiazol-5-yl)-N-[(3R,6S)-6-methylpiperidin-3-yl]pyrazin-2-amine] | 26.5 nM | 69.6 nM |  | 
C[C@@H]1NCCC[C@H]1Nc1cncc(-c2cnc3cc(Cl)ccn23)n1 [Example 104, 6-(7-chloroimidazo[1,2-a]pyridin-3-yl)-N-[(2S,3R)-2-methylpiperidin-3-yl]pyrazin-2-amine] | 36.4 nM | ≥ 10000 nM |  | 
CCc1cn2c(-c3cncc(N[C@@H]4CCCN[C@H]4C)n3)cnc2s1 [Example 109, 6-(2-ethylimidazo[2,1-b][1,3]thiazol-5-yl)-N-[(2S,3R)-2-methylpiperidin-3-yl]pyrazin-2-amine] | 28.4 nM |  | 190 nM | 
Clc1ccc2c(-c3cncc(N[C@@H]4CCNC4)n3)cnn2c1 [Example 113, 6-(6-chloropyrazolo[1,5-a]pyridin-3-yl)-N-[(3R)-pyrrolidin-3-yl]pyrazin-2-amine] |  | 103 nM |  | 95.5%^
c1ccn2ncc(-c3cncc(N[C@@H]4CCNC4)n3)c2c1 [Example 115, 6-pyrazolo[1,5-a]pyridin-3-yl-N-[(3R)-pyrrolidin-3-yl]pyrazin-2-amine] | 3.3 nM | 169 nM |  | 
Clc1ccc2c(-c3cncc(N[C@@H]4CCCNC4)n3)cnn2c1 [Example 117, 6-(6-chloropyrazolo[1,5-a]pyridin-3-yl)-N-[(3R)-piperidin-3-yl]pyrazin-2-amine] | 0.802 nM | 32.9 nM |  | 
CC(Oc1ccn2c(-c3cncc(N[C@@H]4CCCNC4)n3)cnc2c1)C(F)(F)F (stereo partly drawn) [Example 118, N-[(3R)-piperidin-3-yl]-6-[7-(2,2,2-trifluoro-1-methylethoxy)imidazo[1,2-a]pyridin-3-yl]pyrazin-2-amine] | 5.27 nM | 1110 nM |  | 
C[C@@H]1CNC[C@@H]1Nc1cncc(-c2cnn3ccccc23)n1 [Example 119, N-[(3R,4R)-4-methylpyrrolidin-3-yl]-6-pyrazolo[1,5-a]pyridin-3-ylpyrazin-2-amine] | 5.38 nM | 26.7 nM |  | 
c1cnc2c(-c3cncc(N[C@@H]4CCNC4)n3)cnn2c1 [Example 121, 6-pyrazolo[1,5-a]pyrimidin-3-yl-N-[(3R)-pyrrolidin-3-yl]pyrazin-2-amine] |  | ≥ 10000 nM |  | 16.5%^
CCC(COC)Oc1ccn2c(-c3cncc(N[C@@H]4CCCNC4)n3)cnc2c1 (stereo partly drawn) [Example 122, 6-{7-[1-(methoxymethyl)propoxy]imidazo[1,2-a]pyridin-3-yl}-N-[(3R)-piperidin-3-yl]pyrazin-2-amine] | 11 nM | 1060 nM |  | 
COc1ccn2c(-c3cncc(N[C@@H]4C[C@@H]5CN[C@H]4C5)n3)cnc2c1 [Example 124, (1S,4R,6R)-N-[6-(7-methoxyimidazo[1,2-a]pyridin-3-yl)pyrazin-2-yl]-2-azabicyclo[2.2.1]heptan-6-amine] | 2.29 nM | ≥ 10000 nM |  | 
Fc1ccc2ncc(-c3cncc(N[C@@H]4C[C@@H]5CN[C@H]4C5)n3)n2c1 [Example 126, (1S,4R,6R)-N-[6-(6-fluoroimidazo[1,2-a]pyridin-3-yl)pyrazin-2-yl]-2-azabicyclo[2.2.1]heptan-6-amine] | 5.88 nM | 140 nM |  | 
CC(C)c1cn2c(-c3cncc(N[C@@H]4C[C@@H]5CN[C@H]4C5)n3)cnc2s1 [Example 127, (1S,4R,6R)-N-[6-(2-isopropylimidazo[2,1-b][1,3]thiazol-5-yl)pyrazin-2-yl]-2-azabicyclo[2.2.1]heptan-6-amine] | 8.91 nM | 1060 nM |  | 
CCc1cn2c(-c3cncc(N[C@@H]4C[C@@H]5CN[C@H]4C5)n3)cnc2s1 [Example 128, (1S,4R,6R)-N-[6-(2-ethylimidazo[2,1-b][1,3]thiazol-5-yl)pyrazin-2-yl]-2-azabicyclo[2.2.1]heptan-6-amine] | 1.79 nM | 172 nM |  | 

Further lines, results first:

Ki [1] | EC50 ([2]; Homo sapiens, HeLa) | EC50 [2] | percent inhibition (where no Ki data is available) [1] | SMILES
8.62 nM |  | 151 nM |  | Cc1cn2c(-c3cncc(N[C@@H]4CCCN[C@H]4C)n3)cnc2s1 [Example 97, 6-(2-methylimidazo[2,1-b][1,3]thiazol-5-yl)-N-[(2S,3R)-2-methylpiperidin-3-yl]pyrazin-2-amine]
28.4 nM | ≥ 10000 nM |  |  | CC1(Nc2cncc(-c3cnc4ccccn34)n2)CCNC1 (stereo not drawn) [Example 99, 6-imidazo[1,2-a]pyridin-3-yl-N-(3-methylpyrrolidin-3-yl)pyrazin-2-amine]
55.4 nM | ≥ 10000 nM |  |  | C[C@@H]1NCCC[C@H]1Nc1cncc(-c2cnc3ccccn23)n1 [Example 101, 6-imidazo[1,2-a]pyridin-3-yl-N-[(2S,3R)-2-methylpiperidin-3-yl]pyrazin-2-amine]
3.1 nM | ≥ 10000 nM |  |  | C[C@H]1NCCC[C@H]1Nc1cncc(-c2cnc3cc(Cl)ccn23)n1 [Example 102, 6-(7-chloroimidazo[1,2-a]pyridin-3-yl)-N-[(2R,3R)-2-methylpiperidin-3-yl]pyrazin-2-amine]
21.8 nM | 271 nM |  |  | CCc1cn2c(-c3cncc(N[C@@H]4CC[C@@H](C)NC4)n3)cnc2s1 [Example 106, 6-(2-ethylimidazo[2,1-b][1,3]thiazol-5-yl)-N-[(3R,6R)-6-methylpiperidin-3-yl]pyrazin-2-amine]
2.85 nM | 31.6 nM |  |  | CCc1cn2c(-c3cncc(N[C@@H]4CCCNC4)n3)cnc2s1 [Example 107, 6-(2-ethylimidazo[2,1-b][1,3]thiazol-5-yl)-N-[(3R)-piperidin-3-yl]pyrazin-2-amine]
10.2 nM |  | 47 nM |  | CCc1cn2c(-c3cncc(N[C@@H]4CCCN[C@@H]4C)n3)cnc2s1 [Example 108, 6-(2-ethylimidazo[2,1-b][1,3]thiazol-5-yl)-N-[(2R,3R)-2-methylpiperidin-3-yl]pyrazin-2-amine]
3.63 nM |  | 22.4 nM |  | CC(C)c1cn2c(-c3cncc(N[C@@H]4CCCN[C@@H]4C)n3)cnc2s1 [Example 111, 6-(2-isopropylimidazo[2,1-b][1,3]thiazol-5-yl)-N-[(2R,3R)-2-methylpiperidin-3-yl]pyrazin-2-amine]
12.7 nM | 1110 nM |  |  | CC(C)c1cn2c(-c3cncc(N[C@@H]4CCCN[C@H]4C)n3)cnc2s1 [Example 112, 6-(2-isopropylimidazo[2,1-b][1,3]thiazol-5-yl)-N-[(2S,3R)-2-methylpiperidin-3-yl]pyrazin-2-amine]
12.3 nM | 230 nM |  |  | CC(C)c1cn2c(-c3cncc(N[C@@H]4CC[C@H](C)NC4)n3)cnc2s1 [Example 114, 6-(2-isopropylimidazo[2,1-b][1,3]thiazol-5-yl)-N-[(3R,6S)-6-methylpiperidin-3-yl]pyrazin-2-amine]
1.97 nM | 20.3 nM |  |  | C[C@@H]1CNC[C@@H]1Nc1cncc(-c2cnn3cc(Cl)ccc23)n1 [Example 116, 6-(6-chloropyrazolo[1,5-a]pyridin-3-yl)-N-[(3R,4R)-4-methylpyrrolidin-3-yl]pyrazin-2-amine]
 | ≥ 10000 nM |  | 18.3%^ | C[C@H]1NCCC[C@@H]1Nc1cncc(-c2cnc3ccccn23)n1 [Example 132, 6-imidazo[1,2-a]pyridin-3-yl-N-[(2R,3S)-2-methylpiperidin-3-yl]pyrazin-2-amine]
 | ≥ 10000 nM |  | 0% | Cc1cn2c(-c3cncc(N[C@H]4CCCN[C@@H]4C)n3)cnc2s1 [Example 134, 6-(2-methylimidazo[2,1-b][1,3]thiazol-5-yl)-N-[(2R,3S)-2-methylpiperidin-3-yl]pyrazin-2-amine]
